In US20250129018A1, “PLEUROMUTILIN DERIVATIVES CONTAINING CYCLOALKYL GROUP AND PREPARATION METHODS AND APPLICATIONS THEREOF” (priority 2023, published 2025):

Key:
Assay in all cases: MIC, two-fold serial dilution method
S. dysgalactiae-2 = type: cell-based, S. dysgalactiae equisimilis; conditions: S. dysgalactiae-2
Experimental: (§1) The pleuromutilin derivatives 1-4 prepared from Example 9 of the present disclosure were determined for their effect on Methicillin-resistant Staphylococcus aureus, Methicillin-resistant Staphylococcus epidermidis, standard strains of Staphylococcus aureus (S. aureus-29213 and S. aureus-25923), clinical strains 1-48 of S. aureus, Escherichia coli, S. agalactiae and S. dysgalactiae equisimilis (S. dysgalactiae-1, S. dysgalactiae-2, S. dysgalactiae-3) and minimum inhibitory concentration (MIC) using a two-fold serial dilution method, and the results were shown in Table 1, Table 2 and Table 3. The standard strains are commercially available from ATCC, and the clinical strains are preserved by Lanzhou Institute of Husbandry and Pharmaceutical Science of Chinese Academy of Agricultural Sciences (Lanzhou, Gansu, China).

S. dysgalactiae-3 = type: cell-based, S. dysgalactiae equisimilis; conditions: S. dysgalactiae-3
Experimental: as §1

S. dysgalactiae-1 = type: cell-based, S. dysgalactiae equisimilis; conditions: S. dysgalactiae-1
Experimental: as §1

E. coli-25922 = type: cell-based, Escherichia coli; conditions: E. coli-25922
Experimental: as §1

MRSE = type: cell-based, Methicillin-resistant Staphylococcus epidermidis
Experimental: as §1

S. agalactiae-1 = type: cell-based; conditions: S. agalactiae-1
Experimental: as §1

S. aureus-25923 = type: cell-based, Staphylococcus aureus; conditions: S. aureus-25923
Experimental: as §1

S. aureus-29213 = type: cell-based, Staphylococcus aureus; conditions: S. aureus-29213
Experimental: as §1

MRSA-337371 = type: cell-based, Methicillin-resistant Staphylococcus aureus; conditions: MRSA-337371
Experimental: as §1

Measured: minimum inhibitory concentration

C=CC1(C)CC(OC(=O)CSC(C)(C)CNC(=O)C2CCCCC2)C2(C)C(C)CCC3(CCC(=O)C32)C(C)C1O (stereo not drawn) [derivative 4]
0.25 µg/mL: MRSE
0.125 µg/mL: S. dysgalactiae-2 | S. dysgalactiae-3 | S. dysgalactiae-1 | S. agalactiae-1 | S. aureus-25923 | S. aureus-29213 | MRSA-337371
>16 µg/mL: E. coli-25922

C=CC1(C)CC(OC(=O)CSC(C)(C)CNC(=O)C2CC2)C2(C)C(C)CCC3(CCC(=O)C32)C(C)C1O (stereo not drawn) [derivative 1]
>16 µg/mL: E. coli-25922
0.031 µg/mL: S. dysgalactiae-2 | S. dysgalactiae-3 | S. dysgalactiae-1 | MRSE | S. agalactiae-1 | S. aureus-25923 | S. aureus-29213 | MRSA-337371

C=CC1(C)CC(OC(=O)CSC(C)(C)CNC(=O)C2CCCC2)C2(C)C(C)CCC3(CCC(=O)C32)C(C)C1O (stereo not drawn) [derivative 3]
>16 µg/mL: E. coli-25922
0.25 µg/mL: MRSE | MRSA-337371
0.125 µg/mL: S. dysgalactiae-2 | S. dysgalactiae-3 | S. dysgalactiae-1 | S. agalactiae-1 | S. aureus-25923 | S. aureus-29213
